Legend:
[1] = molecular target: Kappa-type opioid receptor (Cavia porcellus, UniProt P41144); test: Displacement of [3H]U-69,593 from kappa-type opioid receptor in guinea pig brain membranes after 120 mins by solid scintillation counting; assay type: cell membranes, Membrane
[2] = Displacement of [3H]DPDPE from delta-type opioid receptor in guinea pig brain membranes after 120 mins by solid scintillation counting; assay type: cell membranes, Cavia porcellus, Membrane
[3] = molecular target: T1, Kappa-type opioid receptor (Homo sapiens, UniProt P41145); test: Agonist activity at recombinant human kappa-type opioid receptor expressed in HEK293 cells after 30 mins by [35S]GTPgammaS binding assay; assay type: functional, cell-based
T1 sequence (P41145 whole entry): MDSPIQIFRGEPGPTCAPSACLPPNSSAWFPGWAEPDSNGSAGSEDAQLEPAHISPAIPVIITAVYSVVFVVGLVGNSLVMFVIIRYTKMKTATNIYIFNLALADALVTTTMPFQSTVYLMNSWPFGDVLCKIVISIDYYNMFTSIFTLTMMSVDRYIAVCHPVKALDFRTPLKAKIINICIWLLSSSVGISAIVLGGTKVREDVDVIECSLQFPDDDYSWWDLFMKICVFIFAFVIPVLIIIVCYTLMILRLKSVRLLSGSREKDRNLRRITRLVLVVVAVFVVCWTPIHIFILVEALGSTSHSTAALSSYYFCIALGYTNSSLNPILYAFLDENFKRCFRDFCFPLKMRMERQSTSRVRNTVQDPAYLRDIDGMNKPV

[4] = Lipophilicity, logD of the compound at pH 7.4 by LC/MS analysis; assay type: physicochemical; conditions: buffer
Mus musculus [5] = test: Antiinflammatory activity in arachidonic acid-induced ear dermatitis ICR mouse model assessed as reduction in ear swelling at 0.1 mg administered twice tropically 30 mins prior and 15 mins after arachidonic acid addition measured 60 mins post arachidonic acid challenge relative to control; assay type: functional
Mus musculus [6] = test: Antiinflammatory activity in arachidonic acid-induced ear dermatitis ICR mouse model assessed as reduction in ear swelling at 0.3 mg administered twice tropically 30 mins prior and 15 mins after arachidonic acid addition measured 60 mins post arachidonic acid challenge relative to control; assay type: functional
Mus musculus [7] = test: Antiinflammatory activity in arachidonic acid-induced ear dermatitis ICR mouse model assessed as reduction in ear swelling at 1 mg administered twice tropically 30 mins prior and 15 mins after arachidonic acid addition measured 60 mins post arachidonic acid challenge relative to control; assay type: functional
Mus musculus [8] = test: Antiinflammatory activity in arachidonic acid-induced ear dermatitis ICR mouse model assessed as reduction in ear swelling at 3 mg administered twice tropically 30 mins prior and 15 mins after arachidonic acid addition measured 60 mins post arachidonic acid challenge relative to control; assay type: functional
Mu-type opioid receptor = Mu-type opioid receptor (Cavia porcellus, UniProt P97266); test: Displacement of [3H]DAMGO from mu-type opioid receptor in guinea pig brain membranes after 120 mins by solid scintillation counting; assay type: cell membranes, Membrane
Sequence of Mu-type opioid receptor (P97266 whole entry): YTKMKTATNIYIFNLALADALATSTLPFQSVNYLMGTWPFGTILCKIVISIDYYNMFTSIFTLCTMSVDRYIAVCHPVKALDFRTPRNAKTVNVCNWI

[9] = molecular target: Mu-type opioid receptor (Cavia porcellus) (UniProt P97266); test: Displacement of [3H]DAMGO from mu-type opioid receptor in guinea pig brain membranes at 1 uM after 120 mins by solid scintillation counting; assay type: cell membranes; conditions: Membrane
Sequence of Mu-type opioid receptor (Cavia porcellus) (P97266 whole entry): as above

[10] = molecular target: Sigma non-opioid intracellular receptor 1 (Cavia porcellus) (UniProt Q60492); test: Displacement of [3H]-(+)-pentazocine from sigma1-type […] receptor in guinea pig cortex membranes at 1 uM after 120 mins by solid scintillation counting; assay type: cell membranes
Sequence of Sigma non-opioid intracellular receptor 1 (Cavia porcellus) (Q60492 whole entry): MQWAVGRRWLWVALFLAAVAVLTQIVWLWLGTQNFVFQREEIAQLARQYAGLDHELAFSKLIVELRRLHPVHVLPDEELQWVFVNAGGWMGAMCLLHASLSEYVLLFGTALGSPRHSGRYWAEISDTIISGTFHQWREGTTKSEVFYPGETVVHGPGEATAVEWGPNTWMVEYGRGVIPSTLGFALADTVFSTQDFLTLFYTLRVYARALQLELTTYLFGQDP

Rattus norvegicus [11] = species on record: Rattus norvegicus; test: Displacement of [3H]-DTG from sigma 2 receptor in rat liver membranes at 1 uM after 120 mins by scintillation counting; assay type: cell membranes; conditions: Membrane
Sus scrofa = species on record: Sus scrofa; test: Displacement of [3H]-(+)-MK 801 from PCP binding site of NMDA receptor in pig brain cortex membranes at 10 uM after 120 mins by solid scintillation counting; assay type: cell membranes
[12] = molecular target: T1, Kappa-type opioid receptor; test: Agonist activity at recombinant human kappa-type opioid receptor expressed in HEK293 cells at 1 uM after 30 mins by [35S]GTPgammaS binding assay; assay type: functional, cell-based
[13] = Plasma concentration in Wistar Han rat at 5 mg/kg, iv measured 0.25 hrs post compound administration; assay type: ADME, organism-based
[14] = Plasma concentration in Wistar Han rat at 5 mg/kg, iv measured 1 hr post compound administration; assay type: ADME, organism-based
[15] = Drug level in Wistar Han rat brain at 5 mg/kg, iv measured 1 hr post compound administration; assay type: ADME, organism-based; conditions: read-out: Drug uptake
[16] = Ratio of drug level in brain to plasma in Wistar Han rat at 5 mg/kg, iv after 1 hr; assay type: ADME, organism-based; conditions: read-out: BPR
Rattus norvegicus [17] = test: Toxicity in Wistar Han rat assessed as assessed as clinical signs changes at 5 mg/kg, iv after 1 hr; assay type: organism-based; conditions: in vivo

Sequence of Kappa-type opioid receptor (Cavia porcellus, UniProt P41144) (P41144 whole entry): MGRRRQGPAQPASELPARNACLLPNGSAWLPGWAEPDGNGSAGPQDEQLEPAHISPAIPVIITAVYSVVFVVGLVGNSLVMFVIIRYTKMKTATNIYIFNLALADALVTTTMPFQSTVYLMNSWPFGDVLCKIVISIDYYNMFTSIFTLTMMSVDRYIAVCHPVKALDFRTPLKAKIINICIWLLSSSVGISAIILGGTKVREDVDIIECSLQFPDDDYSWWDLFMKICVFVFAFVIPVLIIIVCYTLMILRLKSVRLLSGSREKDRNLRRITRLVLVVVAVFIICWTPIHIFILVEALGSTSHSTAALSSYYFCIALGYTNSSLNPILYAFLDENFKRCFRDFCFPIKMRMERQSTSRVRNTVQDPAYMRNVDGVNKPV

COC(=O)N1CCN(C(=O)Cc2ccc(F)c(F)c2)[C@@H]2[C@@H](N3CC[C@H](O)C3)CCC[C@@H]21
Ki [1]: 1.2 nM | Ki [2]: 623 nM | EC50 [3]: 11 nM | logD [4]: 0.77 | inhibition (INH) (Mus musculus [5]): 1% | inhibition (INH) (Mus musculus [6]): -20% | inhibition (INH) (Mus musculus [7]): -11% | inhibition (INH) (Mus musculus [8]): 64%

CS(=O)(=O)N1CCN(C(=O)Cc2ccc(Cl)c(Cl)c2)[C@@H]2[C@@H](N3CCCC3)CCC[C@@H]21 [listing 1 of 2 here]
Ki [1]: 0.31 nM | Ki (Mu-type opioid receptor): 91 nM | Ki [2]: 1090 nM | EC50 [3]: 1.5 nM

O=C(Cc1ccc(Cl)c(F)c1)N1CCN(S(=O)(=O)Cc2ccon2)[C@H]2CCC[C@H](N3CC[C@H](O)C3)[C@H]21
Ki [1]: 0.82 nM | inhibition [9]: 6% | Ki [2]: 1380 nM | inhibition [10]: 0% | inhibition (Rattus norvegicus [11]): 7% | inhibition (Sus scrofa): 13% | EC50 [3]: 1.4 nM | Activity [12]: 105% | logD [4]: 1.4

COC(=O)N1CCN(C(=O)Cc2ccc(Cl)c(Cl)c2)[C@@H]2[C@@H](N(C)C)CCC[C@@H]21
Ki [1]: 0.16 nM | Ki [2]: 7.9 nM | EC50 [3]: 1 nM

COC(=O)N1CCN(C(=O)Cc2ccc(C(F)(F)F)c(Cl)c2)[C@@H]2[C@@H](N3CC[C@H](O)C3)CCC[C@@H]21
Ki [1]: 0.27 nM | Ki (Mu-type opioid receptor): 612 nM | Ki [2]: 394 nM | EC50 [3]: 0.3 nM

CS(=O)(=O)N1CCN(C(=O)Cc2ccc(Cl)c(Cl)c2)[C@@H]2[C@@H](N3CCCC3)CCC[C@@H]21 [listing 2 of 2 here]
inhibition [10]: 0% | inhibition (Rattus norvegicus [11]): 5% | inhibition (Sus scrofa): 0% | Activity [12]: 106%

COC(=O)N1CCN(C(=O)Cc2ccc(Cl)c(F)c2)[C@@H]2[C@@H](N3CC[C@H](O)C3)CCC[C@@H]21
Ki [1]: 1.8 nM | Ki (Mu-type opioid receptor): 551 nM | Ki [2]: 250 nM | EC50 [3]: 3.9 nM | inhibition (INH) (Mus musculus [5]): 2% | inhibition (INH) (Mus musculus [6]): 37% | inhibition (INH) (Mus musculus [7]): 59% | inhibition (INH) (Mus musculus [8]): 68%

COC(=O)N1CCN(C(=O)Cc2ccc(F)c(Cl)c2)[C@@H]2[C@@H](N3CC[C@H](O)C3)CCC[C@@H]21.Cl
concentration at 0.25 h [13]: 970 ng/mL | concentration at 1 h [14]: 465 ng/mL | concentration at 1 h [15]: 44 ng/g | Kp at 1 h [16]: 0.09 | Activity (Rattus norvegicus [17]): Non-Toxic

COC(=O)N1CCN(C(=O)Cc2ccc(F)c(F)c2)[C@@H]2[C@@H](N3CC[C@H](O)C3)CCC[C@@H]21.Cl
concentration at 0.25 h [13]: 1410 ng/mL | concentration at 1 h [14]: 392 ng/mL | concentration at 1 h [15]: 46.4 ng/g | Kp at 1 h [16]: 0.12 | Activity (Rattus norvegicus [17]): Non-Toxic

CS(=O)(=O)N1CCN(C(=O)Cc2ccc(Cl)c(F)c2)[C@@H]2[C@@H](N3CC[C@H](O)C3)CCC[C@@H]21 [listing 1 of 2 here]
Ki [1]: 2.1 nM | Ki (Mu-type opioid receptor): 308 nM | Ki [2]: 394 nM | EC50 [3]: 8 nM | inhibition (INH) (Mus musculus [5]): 33% | inhibition (INH) (Mus musculus [6]): 43% | inhibition (INH) (Mus musculus [7]): 46% | inhibition (INH) (Mus musculus [8]): 71%

CS(=O)(=O)N1CCN(C(=O)Cc2ccc(F)c(Cl)c2)[C@@H]2[C@@H](N3CC[C@H](O)C3)CCC[C@@H]21
Ki [1]: 1.7 nM | Ki [2]: 575 nM | EC50 [3]: 5.9 nM | inhibition (INH) (Mus musculus [5]): 22% | inhibition (INH) (Mus musculus [6]): 43% | inhibition (INH) (Mus musculus [7]): 56% | inhibition (INH) (Mus musculus [8]): 69%

CC(C)NC(=O)N1CCN(C(=O)Cc2ccc(Cl)c(Cl)c2)[C@@H]2[C@@H](N3CCCC3)CCC[C@@H]21 [listing 1 of 2 here]
inhibition [9]: 0% | inhibition [10]: 0% | inhibition (Rattus norvegicus [11]): 0% | inhibition (Sus scrofa): 0% | Activity [12]: 100%

CS(=O)(=O)N1CCN(C(=O)Cc2ccc(Cl)c(F)c2)[C@@H]2[C@@H](N3CC[C@H](O)C3)CCC[C@@H]21 [listing 2 of 2 here]
inhibition [10]: 12% | inhibition (Rattus norvegicus [11]): 0% | inhibition (Sus scrofa): 16% | Activity [12]: 105%

CS(=O)(=O)N1CCN(C(=O)Cc2ccc(F)c(Cl)c2)[C@@H]2[C@@H](N3CC[C@H](O)C3)CCC[C@@H]21.Cl
concentration at 0.25 h [13]: 1210 ng/mL | concentration at 1 h [14]: 356 ng/mL | concentration at 1 h [15]: 38.7 ng/g | Kp at 1 h [16]: 0.11 | Activity (Rattus norvegicus [17]): Non-Toxic

CC(C)NC(=O)N1CCN(C(=O)Cc2ccc(Cl)c(Cl)c2)[C@@H]2[C@@H](N3CCCC3)CCC[C@@H]21 [listing 2 of 2 here]
Ki [1]: 2.5 nM | Ki [2]: 237 nM | EC50 [3]: 4.5 nM
